Earlier results in US8163703B2, “Hepatitis C therapies” (BioCryst Pharmaceuticals, Inc., priority 2005, dated 2012).

Test system: HCV
Conditions: ribavirin alone

## NC(=O)c1ncn([C@@H]2O[C@H](CO)[C@@H](O)[C@H]2O)n1 [Ribavirin, 1-β-D-ribofuranosyl-1-1,2,4-triazole-3-carboxamide]
  patients in whom serum amino transferase levels are reduced to normal: 40%
